Counter-ions that a name gives are not always drawn.
What was measured:
[1] = system: MEK1 phosphorylation in the A375 human melanoma cell line; experiment: cells; conditions: A-375, read-out: pMEK IC50
Procedure: A375 cells (from American Type Culture Collection) were plated at 50,000 cells per well in DMEM (Mediatech) with 10% fetal bovine serum (Omega Scientific) into a 96 well plate and incubated overnight in a 37° C. incubator with 10% CO2. The cells were then washed with PBS and the medium replaced with 0.5% FBS for incubation overnight. […] The cells were incubated with compound or control for two hours at 37° C. The compound solution was aspirated off and the cells washed with cold PBS. […] The plate was centrifuged for 30 minutes to pellet out the cell debris. The cleared lysates were transferred to a 96-well Nunc plate and the ELISA protocol described by the manufacturer in Catalog #KHO0321 or KHO0291 was followed.

A375 cells = experiment: cells; conditions: Homo sapiens, A-375, read-out: A375 Viability EC50
RAF kinases [2] = biological target: RAF kinases (Homo sapiens, UniProt P15056); experiment: biochemical
RAF kinases [3] = biological target: RAF kinases (Homo sapiens, UniProt P04049); experiment: biochemical
Chain of RAF kinases (Homo sapiens, UniProt P04049) (P04049 whole entry): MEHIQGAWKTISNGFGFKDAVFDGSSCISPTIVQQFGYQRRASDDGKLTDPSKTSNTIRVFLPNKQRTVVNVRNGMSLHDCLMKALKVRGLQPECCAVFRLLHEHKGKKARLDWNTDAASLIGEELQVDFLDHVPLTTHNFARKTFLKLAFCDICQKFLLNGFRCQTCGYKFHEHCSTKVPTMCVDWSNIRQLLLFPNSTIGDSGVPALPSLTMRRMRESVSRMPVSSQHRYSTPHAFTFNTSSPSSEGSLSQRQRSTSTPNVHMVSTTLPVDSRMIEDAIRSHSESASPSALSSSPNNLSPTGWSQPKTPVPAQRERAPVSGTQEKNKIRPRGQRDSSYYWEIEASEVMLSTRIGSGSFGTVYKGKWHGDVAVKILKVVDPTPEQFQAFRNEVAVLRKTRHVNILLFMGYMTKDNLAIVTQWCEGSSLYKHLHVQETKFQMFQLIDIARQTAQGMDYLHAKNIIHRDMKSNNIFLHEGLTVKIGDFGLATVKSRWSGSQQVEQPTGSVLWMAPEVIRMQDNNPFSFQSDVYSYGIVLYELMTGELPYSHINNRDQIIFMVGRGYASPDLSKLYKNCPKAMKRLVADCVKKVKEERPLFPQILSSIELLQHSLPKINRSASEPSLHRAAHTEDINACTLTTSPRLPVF

Chain of RAF kinases (Homo sapiens, UniProt P15056) (P15056 whole entry): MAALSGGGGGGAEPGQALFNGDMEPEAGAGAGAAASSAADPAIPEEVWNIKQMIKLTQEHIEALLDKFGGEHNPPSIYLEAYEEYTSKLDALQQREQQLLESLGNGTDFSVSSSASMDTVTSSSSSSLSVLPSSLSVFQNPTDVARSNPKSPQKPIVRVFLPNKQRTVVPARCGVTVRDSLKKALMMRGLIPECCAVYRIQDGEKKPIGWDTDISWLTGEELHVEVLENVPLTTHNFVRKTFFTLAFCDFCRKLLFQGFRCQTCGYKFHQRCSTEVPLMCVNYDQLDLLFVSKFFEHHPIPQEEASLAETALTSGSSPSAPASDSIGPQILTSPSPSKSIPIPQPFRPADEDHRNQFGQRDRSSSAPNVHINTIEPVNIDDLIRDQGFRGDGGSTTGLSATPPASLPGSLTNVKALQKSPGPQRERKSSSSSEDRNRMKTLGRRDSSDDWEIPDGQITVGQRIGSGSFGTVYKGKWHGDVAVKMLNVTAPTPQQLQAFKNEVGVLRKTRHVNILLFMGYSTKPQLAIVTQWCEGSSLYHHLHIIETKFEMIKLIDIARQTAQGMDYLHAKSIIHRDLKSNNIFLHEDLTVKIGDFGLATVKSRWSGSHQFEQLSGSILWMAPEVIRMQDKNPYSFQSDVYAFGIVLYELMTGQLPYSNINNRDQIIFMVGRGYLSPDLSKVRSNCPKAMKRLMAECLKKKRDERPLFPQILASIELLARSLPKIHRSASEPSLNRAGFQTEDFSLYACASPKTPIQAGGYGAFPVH

SMILES | IC50 [1] [nM] | EC50 (A375 cells) [nM] | Kd (RAF kinases [2]) [nM] | Kd (RAF kinases [3]) [nM]
COCCOc1cc2ncnc(Oc3cccc(NC(=O)Nc4cc(C(C)(C)C)on4)c3)c2cc1OC [Ex 7, 1-(5-tert-Butylisoxazol-3-yl)-3-{3-[6-methoxy-7-(2-methoxyethoxy)quinazolin-4-yloxy]phenyl}urea hydrochloride] | < 250 | 250 to 500 | 250 to 500 | 250 to 500
COCCOc1cc2ncnc(Oc3cccc(NC(=O)Nc4cc(C(C)(C)C)on4)c3)c2cc1OCCOC [Ex 12, 1-{3-[6,7-bis(2-methoxyethoxy)quinazolin-4-yloxy]phenyl}-3-(5-tert-butylisoxazol-3-yl)urea hydrochloride] | < 250 | 250 to 500 | 500 to 1000 | 250 to 500
CC(C)(C)c1cc(NC(=O)Nc2cccc(Oc3ncnc4cc5c(cc34)OCCO5)c2)no1 [Ex 14, 1-(5-tert-butylisoxazol-3-yl)-3-[3-(7,8-dihydro-[1,4]dioxino[2,3-g]quinazolin-4-yloxy)phenyl]urea hydrochloride] | 500 to 1000 | > 1000 | 500 to 1000 | 250 to 500
COCCOc1cc2c(Oc3cccc(NC(=O)Nc4cc(C(C)(C)C)on4)c3)ncnc2cc1OC [Ex 15, 1-(5-tert-butylisoxazol-3-yl)-3-{3-[7-methoxy-6-(2-methoxyethoxy)quinazolin-4-yloxy]phenyl}urea hydrochloride] | < 250 | < 250 | 250 to 500 | 250 to 500
COc1cc2ncnc(Oc3cccc(NC(=O)Nc4cc(C(C)(C)C)on4)c3)c2cc1OCCN1CCC(CO)CC1 [Ex 17, 1-(5-tert-butylisoxazol-3-yl)-3-(3-(6-(2-(4-(hydroxymethyl)piperidin-1-yl)ethoxy)-7-methoxyquinazolin-4-yloxy)phenyl)urea] | 250 to 500 | 250 to 500 | 500 to 1000 | 500 to 1000
COc1cc2ncnc(Oc3cccc(NC(=O)Nc4cc(C(C)(C)C)on4)c3)c2cc1OCCN1CCN(C)CC1 [Ex 18, 1-(5-tert-butylisoxazol-3-yl)-3-(3-(7-methoxy-6-(2-(4-methylpiperazin-1-yl)ethoxy)quinazolin-4-yloxy)phenyl)urea] | < 250 | 250 to 500 | 250 to 500 | 500 to 1000
COc1cc2ncnc(Oc3cccc(NC(=O)Nc4cc(C(C)(C)C)on4)c3)c2cc1OCCN1CCN(CCO)CC1 [Ex 19, 1-(5-tert-butylisoxazol-3-yl)-3-(3-(6-(2-(4-(2-hydroxyethyl)piperazin-1-yl)ethoxy)-7-methoxyquinazolin-4-yloxy)phenyl)urea] | < 250 | 250 to 500 | 250 to 500 | 250 to 500
COc1cc2ncnc(Oc3cccc(NC(=O)Nc4cc(C(C)(C)C)on4)c3)c2cc1OCCN1CCOCC1 [Ex 20, 1-(5-tert-butylisoxazol-3-yl)-3-(3-(7-methoxy-6-(2-morpholinoethoxy)quinazolin-4-yloxy)phenyl)urea] | < 250 | < 250 | 250 to 500 | 250 to 500
COc1cc2ncnc(Oc3cccc(NC(=O)Nc4cc(C(C)(C)C)on4)c3)c2cc1OCCCN1CCN(C)CC1 [Ex 21, 1-(5-tert-butylisoxazol-3-yl)-3-(3-(7-methoxy-6-(3-(4-methylpiperazin-1-yl)propoxy)quinazolin-4-yloxy)phenyl)urea] | < 250 | 250 to 500 | 250 to 500 | 250 to 500
COc1cc2ncnc(Oc3cccc(NC(=O)Nc4cc(C(C)(C)C)on4)c3)c2cc1OCCCN1CCCCC1 [Ex 23, 1-(5-tert-butylisoxazol-3-yl)-3-(3-(7-methoxy-6-(3-(piperidin-1-yl)propoxy)quinazolin-4-yloxy)phenyl)urea] | < 250 | 500 to 1000 | 500 to 1000 | 500 to 1000
COc1cc2ncnc(Oc3cccc(NC(=O)Nc4cc(C(C)(C)C)on4)c3)c2cc1OCCCN1CCC(CO)CC1 [Ex 24, 1-(5-tert-butylisoxazol-3-yl)-3-(3-(6-(3-(4-(hydroxymethyl)piperidin-1-yl)propoxy)-7-methoxyquinazolin-4-yloxy)phenyl)urea] | < 250 | 500 to 1000 | 500 to 1000 | 500 to 1000
COc1cc2ncnc(Oc3cccc(NC(=O)Nc4cc(C(C)(C)C)on4)c3)c2cc1OCCCN1CCN(S(C)(=O)=O)CC1 [Ex 25, 1-(5-tert-butylisoxazol-3-yl)-3-(3-(7-methoxy-6-(3-(4-(methylsulfonyl)piperazin-1-yl)propoxy)quinazolin-4-yloxy)phenyl)urea] | < 250 | < 250 | 250 to 500 | 250 to 500
COc1cc2c(Oc3cccc(NC(=O)Nc4cc(C(C)(C)C)on4)c3)ncnc2cc1OCCCN1CCOCC1 [Ex 27, 1-(5-tert-butylisoxazol-3-yl)-3-(3-(6-methoxy-7-(3-morpholinopropoxy)quinazolin-4-yloxy)phenyl)urea] | < 250 | < 250 | 250 to 500 | 250 to 500
COc1cc2c(Oc3cccc(NC(=O)Nc4cc(C(C)(C)C)on4)c3)ncnc2cc1OCCCN1CCC(CO)CC1 [Ex 29] | < 250 | < 250 | 250 to 500 | 250 to 500
COc1cc2c(Oc3cccc(NC(=O)Nc4cc(C(C)(C)C)on4)c3)ncnc2cc1OCCCN1CCC(O)C1 (stereo not shown) [Ex 31, 1-(5-tert-butyl-isoxazol-3-yl)-3-(3-{7-[3-(3-hydroxy-pyrrolidin-1-yl)-propoxy]-6-methoxy-quinazolin-4-yloxy}-phenyl)-urea] | < 250 | < 250 | 250 to 500 | 250 to 500
COc1cc2c(Oc3cccc(NC(=O)Nc4cc(C(C)(C)C)on4)c3)ncnc2cc1OCCCN1CCN(S(C)(=O)=O)CC1 [Ex 32, 1-(5-tert-butylisoxazol-3-yl)-3-(3-(6-methoxy-7-(3-(4-(methylsulfonyl)piperazin-1-yl)propoxy)quinazolin-4-yloxy)phenyl)urea] | < 250 | 250 to 500 | 500 to 1000 | 250 to 500
COc1cc2c(Oc3cccc(NC(=O)Nc4cc(C(C)(C)C)on4)c3)ncnc2cc1OCCCN1CC[C@H](O)C1 [Ex 33, (S)-1-(5-tert-butylisoxazol-3-yl)-3-(3-(7-(3-(3-hydroxypyrrolidin-1-yl)propoxy)-6-methoxyquinazolin-4-yloxy)phenyl)urea] | < 250 | < 250 | 250 to 500 | 250 to 500
COc1cc2c(Oc3cccc(NC(=O)Nc4cc(C(C)(C)C)on4)c3)ncnc2cc1OCCCN1CC[C@@H](O)C1 [Ex 34, (R)-1-(5-tert-Butylisoxazol-3-yl)-3-(3-(7-(3-(3-hydroxypyrrolidin-1-yl)propoxy)-6-methoxyquinazolin-4-yloxy)phenyl)urea] | < 250 | > 1000 | 250 to 500 | 250 to 500
COc1cc2c(Oc3cccc(NC(=O)Nc4cc(C(C)(C)C)on4)c3)ncnc2cc1OCCN1CCOCC1 [Ex 35, 1-(5-tert-butylisoxazol-3-yl)-3-(3-(6-methoxy-7-(2-morpholinoethoxy)quinazolin-4-yloxy)phenyl)urea] | < 250 | 500 to 1000 | 250 to 500 | 250 to 500
COc1cc2c(Oc3cccc(NC(=O)Nc4cc(C(C)(C)C)on4)c3)ncnc2cc1OCCN1CCN(C)CC1 [Ex 36, 1-(5-tert-butylisoxazol-3-yl)-3-(3-(6-methoxy-7-(2-(4-methylpiperazin-1-yl)ethoxy)quinazolin-4-yloxy)phenyl)urea] | < 250 | 250 to 500 | 250 to 500 | 250 to 500
COc1cc2c(Oc3cccc(NC(=O)Nc4cc(C(C)(C)C)on4)c3)ncnc2cc1OCCN1CCC(CO)CC1 [Ex 37, 1-(5-tert-butyl-isoxazol-3-yl)-3-(3-{7-[2-(4-hydroxymethyl-piperidin-1-yl)-ethoxy]-6-methoxy-quinazolin-4-yloxy}-phenyl)-urea] | < 250 | 250 to 500 | 250 to 500 | 250 to 500
COc1cc2c(Oc3cccc(NC(=O)Nc4cc(C(C)(C)C)on4)c3)ncnc2cc1OCCN1CCN(CCO)CC1 [Ex 38, 1-(5-tert-butylisoxazol-3-yl)-3-(3-(7-(2-(4-(2-hydroxyethyl)piperazin-1-yl)ethoxy)-6-methoxyquinazolin-4-yloxy)phenyl)urea] | < 250 | 250 to 500 | 250 to 500 | 250 to 500
COc1cc2c(Oc3cccc(NC(=O)Nc4cc(C(C)(C)C)on4)c3)ncnc2cc1OCCN1CCS(=O)(=O)CC1 [Ex 39, 1-(5-tert-butyl-isoxazol-3-yl)-3-(3-{7-[2-(1,1-dioxo-116-thiomorpholin-4-yl)-ethoxy]-6-methoxy-quinazolin-4-yloxy}-phenyl)-urea] | < 250 | < 250 | 250 to 500 | 250 to 500
COCCOc1ccc2c(Oc3cccc(NC(=O)Nc4cc(C(C)(C)C)on4)c3)ncnc2c1 [Ex 43, 1-(5-tert-butylisoxazol-3-yl)-3-(3-(7-(2-methoxyethoxy)quinazolin-4-yloxy)phenyl)urea] | 250 to 500 | > 1000 | 500 to 1000 | 250 to 500
COCCOc1cc2c(Sc3cccc(NC(=O)Nc4cc(C(C)(C)C)on4)c3)ncnc2cc1OC [Ex 45, 1-(5-tert-butylisoxazol-3-yl)-3-(3-(7-methoxy-6-(2-methoxyethoxy)quinazolin-4-ylthio)phenyl)urea] | < 250 | 250 to 500 | 500 to 1000 | 250 to 500
COc1cc2ncnc(Oc3cccc(NC(=O)Nc4cc(C(C)(C)C)nn4C)c3)c2cc1OC [Ex 158, 1-(3-tert-butyl-1-methyl-1H-pyrazol-5-yl)-3-(3-(6,7-dimethoxyquinazolin-4-yloxy)phenyl)urea] | 250 to 500 | > 1000 |  | 500 to 1000
COc1cc2ncnc(Sc3cccc(NC(=O)Nc4cc(C(C)(C)C#N)nn4-c4ccccc4)c3)c2cc1OC [Ex 309, 1-(3-(2-cyanopropan-2-yl)-1-phenyl-1H-pyrazol-5-yl)-3-(3-(6,7-dimethoxyquinazolin-4-ylthio)phenyl)urea] | < 250 |  | 500 to 1000 | 500 to 1000

From patent US8618289B2 (Ambit Biosciences Corporation, priority 2008, dated 2013)
